Structures are written as SMILES.

As a reminder, the IC50 is the concentration that inhibits the measured activity by half. Lower therefore signals greater potency in that assay.

The assay has as its target T1, human poly-histidine tagged KSP motor domain (KSP(367H)) (Homo sapiens, UniProt P52732).
T1 construct: were used to amplify the motor domain and the neck linker region; made in house; host or cells: E. coli BL21 (DE3), pRSETa
T1 sequence (P52732 18-359 limits assumed): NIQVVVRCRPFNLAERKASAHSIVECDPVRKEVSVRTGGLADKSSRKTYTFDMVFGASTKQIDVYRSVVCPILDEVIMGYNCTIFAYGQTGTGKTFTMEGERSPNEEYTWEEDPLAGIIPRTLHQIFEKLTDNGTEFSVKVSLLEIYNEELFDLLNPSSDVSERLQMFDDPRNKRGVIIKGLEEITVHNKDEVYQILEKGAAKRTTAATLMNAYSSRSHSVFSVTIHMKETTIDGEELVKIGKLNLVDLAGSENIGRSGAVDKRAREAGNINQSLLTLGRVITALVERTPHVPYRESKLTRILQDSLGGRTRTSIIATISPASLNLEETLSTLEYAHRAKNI
Nature of the assay: Kinesin ATPase In Vitro Assay. In kind it is biochemical. Particulars: for IC50: microtubules, 1 mM ATP, 23° C., quinaldine red/ammonium molybdate phosphate readout. From the text:
I. Kinesin ATPase In Vitro Assay
Cloning and expression of human poly-histidine tagged KSP motor domain (KSP(367H)): Plasmids for the expression of the human KSP motor domain construct were cloned by PCR using a pBluescript full length human KSP construct (Blangy et al., Cell, vol. 83, pp 1159-1169, 1995) as a template. The N-terminal primer 5′-[…] (SEQ. ID. NO.: 1) and the C-terminal primer 5′-[…] […] (SEQ. ID. NO.: 2)
were used to amplify the motor domain and the neck linker region. The PCR products were digested with AseI and XhoI, ligated into the NdeI/XhoI digestion product of pRSETa (Invitrogen) and transformed into E. coli BL21 (DE3).
Cells were grown at 37° C. to an OD600 of 0.5. After cooling the culture to room temperature expression of KSP was induced with 100 μM IPTG and incubation was continued overnight. Cells were pelleted by centrifugation and washed once with ice-cold PBS. Pellets were flash-frozen and stored −80° C.
Protein Purification: Cell pellets were thawed on ice and resuspended in lysis buffer (50 mM K-HEPES, pH 8.0, 250 mM KCl, 0.1% Tween, 10 mM imidazole, 0.5 mM Mg-ATP, 1 mM PMSF, 2 mM benzimidine, 1× complete protease inhibitor cocktail (Roche)). Cell suspensions were incubated with 1 mg/ml lysozyme and 5 mM β-mercaptoethanol on ice for 10 minutes, followed by sonication (3×30 sec). All subsequent procedures were performed at 4° C. Lysates were centrifuged at 40,000×g for 40 minutes. Supernatants were diluted and loaded onto an SP Sepharose column (Pharmacia, 5 ml cartridge) in buffer A (50 mM K-HEPES, pH 6.8, 1 mM MgCl2, 1 mM EGTA, 10 μM Mg-ATP, 1 mM DTT) and eluted with a 0 to 750 mM KCl gradient in buffer A. Fractions containing KSP were pooled and incubated with Ni-NTA resin (Qiagen) for one hour. The resin was washed three times with buffer B (Lysis buffer minus PMSF and protease inhibitor cocktail), followed by three 15-minute incubations and washes with buffer B. Finally, the resin was incubated and washed for 15 minutes three times with buffer C (same as buffer B except for pH 6.0) and poured into a column. KSP was eluted with elution buffer (identical to buffer B except for 150 mM KCl and 250 mM imidazole). KSP-containing fractions were pooled, made 10% in sucrose, and stored at −80° C.
Microtubules are prepared from tubulin isolated from bovine brain. Purified tubulin (>97% MAP-free) at 1 mg/ml is polymerized at 37° C. in the presence of 10 μM paclitaxel, 1 mM DTT, 1 mM GTP in BRB80 buffer (80 mM K-PIPES, 1 mM EGTA, 1 mM MgCl2 at pH 6.8). The resulting microtubules are separated from non-polymerized tubulin by ultracentrifugation and removal of the supernatant. The pellet, containing the microtubules, is gently resuspended in 10 μM paclitaxel, 1 mM DTT, 50 μg/ml ampicillin, and 5 μg/ml chloramphenicol in BRB80.
The kinesin motor domain is incubated with microtubules, 1 mM ATP (1:1 MgCl2: Na-ATP), and compound at 23° C. in buffer containing 80 mM K-HEPES (pH 7.0), 1 mM EGTA, 1 mM DTT, 1 mM MgCl2, and 50 mM KCl. The reaction is terminated by a 2-10 fold dilution with a final buffer composition of 80 mM HEPES and 50 mM EDTA. Free phosphate from the ATP hydrolysis reaction is measured via a quinaldine red/ammonium molybdate assay by adding 150 μl of quench C buffer containing a 2:1 ratio of quench A:quench B. Quench A contains 0.1 mg/ml quinaldine red and 0.14% polyvinyl alcohol; quench B contains 12.3 mM ammonium molybdate tetrahydrate in 1.15 M sulfuric acid. The reaction is incubated for 10 minutes at 23° C., and the absorbance of the phosphomolybdate complex is measured at 540 nm.

Consider `CN(C)CCCC1(c2ccccc2)C2COc3ccc(F)cc3C2=NN1C(=O)C(F)(F)F` (centres unmarked) [Compound 3-10, {3-[8-fluoro-3-phenyl-2-(trifluoroacetyl)-2,3,3a,4-tetrahydrochromeno[4,3-c]pyrazol-3-yl]propyl}dimethylamine], for which the IC50 was ≤ 30 µM.
The same measure, in the same setting: as for `CC(=O)N1CCN(CCC[C@@]2(c3ccccc3)[C@H]3COc4ccc(F)cc4C3=NN2C(C)=O)CC1` (relative stereo) [Compound 4-1, cis-2-acetyl-3-[3-(4-acetylpiperazin-1-yl)propyl]-8-fluoro-3-phenyl-2,3,3a,4-tetrahydrochromeno[4,3-c]pyrazole], the figure is ≤ 30 µM.
`CC(=O)N1CCN(CCC[C@@]2(c3ccccc3)[C@@H]3COc4ccc(F)cc4C3=NN2C(=O)C(F)(F)F)CC1` [Compound 3-9, (3S,3aS)-3-[3-(4-acetylpiperazin-1-yl)propyl]-8-fluoro-3-phenyl-2-(trifluoroacetyl)-2,3,3a,4-tetrahydrochromeno[4,3-c]pyrazole]: the IC50 is ≤ 30 µM. The “activity of resolved enantiomer (active / inactive)” value (“activity … (active / inactive)” for short) (assay not named) is “active”.
The corresponding values for `CC(=O)N1CCN(CCC[C@@]2(c3ccccc3)[C@@H]3COc4ccc(F)cc4C3=NN2C(C)=O)CC1` (single isomer, unassigned) [Compound 5-5] are ≤ 30 µM and “active”.
For the molecule `CC(=O)N1N=C2c3cc(F)ccc3OCC2C1(CCC1OCCCO1)c1ccccc1` (mixture of isomers) [Compound 5-4, 2-acetyl-3-[2-(1,3-dioxan-2-yl)ethyl]-8-fluoro-3-phenyl-2,3,3a,4-tetrahydrochromeno[4,3-c]pyrazole], the IC50 is ≤ 30 µM.
For the molecule `CC(=O)N1N=C2c3cc(F)ccc3OC[C@H]2[C@H]1c1ccccc1` [Compound 1-3, (3S,3aS)-2-acetyl-8-fluoro-3-phenyl-2,3,3a,4-tetrahydrochromeno[4,3-c]pyrazole], the IC50 is ≤ 30 µM. Further, the “activity … (active / inactive)” value (assay not named) is “active”.
On to `CC(=O)N1CCN(CCC[C@@]2(c3ccccc3)[C@H]3COc4ccc(F)cc4C3=NN2C(C)=O)CC1` (single isomer, unassigned) [Compound 5-6], for which the IC50 is ≤ 30 µM. Moreover, where the note is “assay not named”, the “activity … (active / inactive)” value is given as “active”.
As to `O=C(N1N=C2c3cc(F)ccc3OCC2C1(CCCN1CCOCC1)c1ccccc1)C(F)(F)F` (centres unmarked) [Compound 3-11, 8-fluoro-3-(3-morpholin-4-ylpropyl)-3-phenyl-2-(trifluoroacetyl)-2,3,3a,4-tetrahydrochromeno[4,3-c]pyrazole], the half-maximal inhibitory concentration (IC50) was ≤ 30 µM.
Still for that read-out and setting: as for `CC(=O)N1N=C2c3cc(F)ccc3OCC2C1(C)c1ccccc1` (mixture of isomers) [Compound 2-2, 2-acetyl-8-fluoro-3-methyl-3-phenyl-2,3,3a,4-tetrahydrochromeno[4,3-c]pyrazole], the figure is ≤ 30 µM; as for `CC(=O)N1CCN(CCCC2(c3ccccc3)C3COc4ccc(F)cc4C3=NN2C(=O)C(F)(F)F)CC1` (centres unmarked) [Compound 3-8, 3-[3-(4-acetylpiperazin-1-yl)propyl]-8-fluoro-3-phenyl-2-(trifluoroacetyl)-2,3,3a,4-tetrahydrochromeno[4,3-c]pyrazole], ≤ 30 µM.
In the case of `CC(=O)N1N=C2c3cc(F)ccc3OCC2C1c1ccccc1` (centres unmarked) [Compound 1-2, 2-acetyl-8-fluoro-3-phenyl-2,3,3a,4-tetrahydrochromeno[4,3-c]pyrazole], the IC50 is ≤ 30 µM. Under “the cis diastereomer (eluted second) compared with the other, assay not named”, the “relative inhibitory activity of the diastereomers” value was “higher inhibitory activity”.
Take `O=C(N1N=C2c3cc(F)ccc3OCC2C1(CCCO)c1ccccc1)C(F)(F)F` (centres unmarked) [Compound 3-7, 3-[8-fluoro-3-phenyl-2-(trifluoroacetyl)-2,3,3a,4-tetrahydrochromeno[4,3-c]pyrazol-3-yl]propan-1-ol]: the IC50 was ≤ 30 µM.
